What was measured:
Syk = Syk (Homo sapiens (Human), UniProt P43405); assay: Syk enzyme inhibition (FRET, Z-LYTE); format: biochemical
Protocol: (§1) The enzyme inhibitory activities of compounds disclosed herein are determined by FRET using synthetic peptides labelled with both donor and acceptor fluorophores (Z-LYTE, Invitrogen Ltd., Paisley, UK).
(§2) The relevant enzyme (3000 ng/mL or 2000 ng/mL respectively, 2.5 μL) is incubated with the test compound (either 4 μg/mL, 0.4 μg/mL, 0.04 μg/mL, or 0.004 μg/mL, 2.5 μL each) for 2 hr at RT. The FRET peptides (8 μM, 2.5 μL), and appropriate ATP solutions (2.5 μL, 800 μM for c-Src, and 60 μM ATP for Syk) are then added to the enzymes/compound mixtures and incubated for 1 hr. Development reagent (protease, 5 μL) is added for 1 hr prior to detection in a fluorescence microplate reader (Varioskan® Flash, ThermoFisher Scientific).
(§3) In all cases, the site-specific protease cleaves non-phosphorylated peptide only and eliminates the FRET signal. Phosphorylation levels of each reaction are calculated using the ratio of coumarin emission (donor) over fluorescein emission (acceptor), for which low ratios indicate high phosphorylation and high ratios indicate low phosphorylation levels.

GSK3α = GSK3α (Homo sapiens (Human), UniProt P49840); assay: GSK 3α enzyme inhibition (FRET, Z-LYTE); format: biochemical
Protocol: as §1
The inhibitory activities of compounds of the invention against the GSK 3α enzyme isoform (Invitrogen), are evaluated by determining the level of activation/phosphorylation of the target peptide. The GSK3-α protein (500 ng/mL, 2.5 μL) is mixed with the test compound (2.5 μL at either 4 μg/mL, 0.4 μg/mL, 0.04 μg/mL, or 0.004 μg/mL) for 2 hr at RT. The FRET peptide (8 μM, 2.5 μL), which is a phosphorylation target for GSK3α, and ATP (40 μM, 2.5 μL) are then added to the enzyme/compound mixture and the resulting mixture incubated for 1 hr. Development reagent (protease, 5 μL) is added for 1 hr prior to detection in a fluorescence microplate reader (Varioskan® Flash, ThermoFisher Scientific).
as §3

[1] = tested on: Poly I:C-induced ICAM-1 expression in BEAS2B cells; assay: Poly I:C-induced ICAM-1 expression in BEAS2B cells; format: cell-based; conditions: Homo sapiens, BEAS-2B, read-out: Poly IC induced ICAM1 in BEAS2B IC50
Protocol: Poly I:C is used in these studies as a simple, RNA virus mimic. Poly I:C-Oligofectamine mixture (1 μg/mL Poly I:C, ±2% Oligofectamine, 25 uL) (Invivogen Ltd., San Diego, Calif., and Invitrogen, Carlsbad, Calif., respectively) is transfected into BEAS2B cells (human bronchial epithelial cells, ATCC). Cells are pre-incubated with final concentrations of test compounds for 2 hr and the level of ICAM1 expression on the cell surface is determined by cell-based ELISA. At a time point 18 hr after poly I:C transfection, cells are fixed with 4% formaldehyde in PBS (100 μL) and then endogenous peroxidase is quenched by the addition of washing buffer (100 μL, 0.05% Tween in PBS: PBS-Tween) containing 0.1% sodium azide and 1% hydrogen peroxide. Cells are washed with wash-buffer (3×200 μL). and after blocking the wells with 5% milk in PBS-Tween (100 μL) for 1 hr, the cells are incubated with anti-human ICAM-1 antibody (50 μL) (Cell Signaling Technology, Danvers, Mass.) in 1% BSA PBS overnight at 4° C.
The cells are washed with PBS-Tween (3×200 μL) and incubated with the secondary antibody (100 μL) (HRP-conjugated anti-rabbit IgG, Dako Ltd., Glostrup, Denmark). The cells are then incubated with of substrate (50 μL) for 2-20 min, followed by the addition of stop solution (50 μL, 1N H2SO4). The ICAM-1 signal is detected by reading and reading the absorbance at 450 nm against a reference wavelength of 655 nm using a spectrophotometer. The cells are then washed with PBS-Tween (3×200 μL) and total cell numbers in each well are determined by reading absorbance at 595 nm after Crystal Violet staining (50 μL of a 2% solution in PBS) and elution by 1% SDS solution (100 μL) in distilled water. The measured OD 450-655 readings are corrected for cell number by dividing with the OD595 reading in each well.

[2] = tested on: LPS-induced IL-8 release in d-U937 cells; assay: LPS-induced IL-8 release in d-U937 cells; format: cell-based; conditions: Homo sapiens, dU937, read-out: LPS Induced Release of Cytokine in d-937 Cells IL-8 IC50
Protocol: (§4) U937 cells, a human monocytic cell line, are differentiated into macrophage-type cells by incubation with PMA (100 ng/mL) for 48 to 72 hr. Cells are pre-incubated with final concentrations of test compound for 2 hr and are then stimulated with LPS (0.1 μg/mL) (from E. coli: O111:B4, Sigma) for 4 hr. The supernatant is collected for determination of TNFα and IL-8 concentrations by sandwich ELISA (Duo-set, R&D systems). […] The relative 50% effective concentration (REC50) is determined from the resultant concentration-response curve. The inhibition of IL-8 production is calculated at each concentration of test compound by comparison with vehicle control. […] (b) LPS-Induced TNFα/IL-8 Release in PBMC Cells

cSrc = cSrc (Homo sapiens (Human), UniProt P12931); assay: c-Src enzyme inhibition (FRET, Z-LYTE); format: biochemical
Protocol: as §1, §2, §3

[3] = tested on: LPS-induced TNFα release in d-U937 cells; assay: LPS-induced TNFα release in d-U937 cells; format: cell-based; conditions: Homo sapiens, dU937, relative to 10 μg/mL BIRB796, read-out: LPS Induced Release of Cytokine in d-937 Cells TNFα REC50
Protocol: as §4

d-U937 cells = assay: Cell viability: MTT assay; format: cell-based, human; conditions: 1 μg/mL
Protocol: Differentiated U937 cells are pre-incubated with each test compound (final concentration 1 μg/mL or 10 μg/mL in 200 μL media indicated below) under two protocols: the first for 4 hr in 5% FCS RPMI1640 media and the second in 10% FCS RPMI1640 media for 24 h. The supernatant is replaced with new media (200 μL) and MTT stock solution (10 μL, 5 mg/mL) is added to each well. After incubation for 1 hr the media are removed, DMSO (200 μL) is added to each well and the plates are shaken lightly for 1 hr prior to reading the absorbance at 550 nm. The percentage loss of cell viability is calculated for each well relative to vehicle (0.5% DMSO) treatment. Consequently an apparent increase in cell viability for drug treatment relative to vehicle is tabulated as a negative percentage.

p38 MAPKα = p38 MAPKα (Homo sapiens (Human), UniProt Q16539); assay: p38 MAPKα enzyme inhibition (FRET, Z-LYTE); format: biochemical
Protocol: as §1
The inhibitory activities of test compounds against the p38 MAPKα isoform (MAPK14: Invitrogen), are evaluated indirectly by determining the level of activation/phosphorylation of the down-stream molecule, MAPKAP-K2. The p38 MAPKα protein (80 ng/mL, 2.5 μL) is mixed with the test compound (2.5 μL of either 4 μg/mL, 0.4 μg/mL, 0.04 μg/mL or 0.004 μg/mL) for 2 hr at RT. […] The mixture is incubated for 1 hr at RT. Development reagent (protease, 5 μL) is added for 1 hr prior to detection in a fluorescence microplate reader (Varioskan® Flash, ThermoFisher Scientific).
as §3

GSK3α, sequence (P49840 whole entry): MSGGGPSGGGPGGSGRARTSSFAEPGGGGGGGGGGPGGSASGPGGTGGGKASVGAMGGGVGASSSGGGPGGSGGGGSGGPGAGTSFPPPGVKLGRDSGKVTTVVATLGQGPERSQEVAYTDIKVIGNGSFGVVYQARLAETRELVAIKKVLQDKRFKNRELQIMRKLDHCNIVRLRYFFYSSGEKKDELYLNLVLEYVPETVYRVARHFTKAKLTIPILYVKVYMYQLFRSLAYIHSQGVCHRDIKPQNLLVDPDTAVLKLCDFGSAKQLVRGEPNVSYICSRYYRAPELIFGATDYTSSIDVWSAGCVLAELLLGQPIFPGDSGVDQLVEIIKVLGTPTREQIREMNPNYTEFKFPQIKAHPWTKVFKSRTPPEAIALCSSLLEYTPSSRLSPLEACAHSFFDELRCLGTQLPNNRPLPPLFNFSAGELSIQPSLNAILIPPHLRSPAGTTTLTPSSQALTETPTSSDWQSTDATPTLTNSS
cSrc, sequence (P12931 whole entry, looked up): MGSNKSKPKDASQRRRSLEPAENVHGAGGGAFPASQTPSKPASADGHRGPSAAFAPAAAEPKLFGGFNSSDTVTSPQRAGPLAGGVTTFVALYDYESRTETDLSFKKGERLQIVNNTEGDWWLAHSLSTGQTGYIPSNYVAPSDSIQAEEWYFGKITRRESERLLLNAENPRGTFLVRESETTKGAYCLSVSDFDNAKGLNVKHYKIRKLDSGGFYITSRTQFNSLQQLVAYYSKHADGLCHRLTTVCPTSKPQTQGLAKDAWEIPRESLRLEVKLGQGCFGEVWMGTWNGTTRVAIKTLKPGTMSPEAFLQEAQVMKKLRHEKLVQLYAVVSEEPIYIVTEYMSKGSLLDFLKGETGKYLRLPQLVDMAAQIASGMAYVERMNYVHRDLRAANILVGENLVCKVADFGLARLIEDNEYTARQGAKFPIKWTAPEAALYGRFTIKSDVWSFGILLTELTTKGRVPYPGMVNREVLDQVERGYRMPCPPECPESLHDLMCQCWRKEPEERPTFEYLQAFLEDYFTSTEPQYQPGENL
p38 MAPKα, sequence (Q16539 whole entry): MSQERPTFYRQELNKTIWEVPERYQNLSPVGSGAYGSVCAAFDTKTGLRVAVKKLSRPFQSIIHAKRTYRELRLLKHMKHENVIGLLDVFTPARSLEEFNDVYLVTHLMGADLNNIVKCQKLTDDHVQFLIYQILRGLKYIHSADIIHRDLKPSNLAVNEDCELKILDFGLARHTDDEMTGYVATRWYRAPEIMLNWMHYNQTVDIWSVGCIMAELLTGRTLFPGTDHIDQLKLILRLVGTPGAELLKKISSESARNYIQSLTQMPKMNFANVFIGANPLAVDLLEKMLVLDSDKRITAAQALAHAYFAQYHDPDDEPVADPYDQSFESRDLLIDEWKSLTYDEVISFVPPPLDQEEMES

Row | Compound | IC50 (Syk) [nM] | IC50 (GSK3α) [nM] | IC50 [2] [nM] | IC50 (cSrc) [nM] | EC50 [3] [nM] | IC50 (p38 MAPKα) [nM] | IC50 [1] [nM] | MTT Assay Cell viability at time point in d-U937 cells 4 h (d-U937 cells) | MTT Assay Cell viability at time point in d-U937 cells 24 h (d-U937 cells)
1 | CC(C)(C)c1cc(NC(=O)Nc2ccc(Oc3cc(Nc4ccc5[nH]ncc5c4)ncn3)c3ccccc23)n(-c2ccc(=O)n(CCO)c2)n1 [Example 14, 1-(4-((6-((1H-Indazol-5-yl)amino)pyrimidin-4-yl)oxy)naphthalen-1-yl)-3-(3-(tert-butyl)-1-(1-(2-hydroxyethyl)-6-oxo-1,6-dihydropyridin-3-yl)-1H-pyrazol-5-yl)urea] | 7 | 1090 | 18.4 | 2 | 7.5 | 3 | 52.4 | −ve (−ve and +ve indicate that the value is below and above respectively, the no significant effect threshold, defined as 30% inhibition at 1 μg/mL at the time point indicated.) | −ve (−ve and +ve indicate that the value is below and above respectively, the no significant effect threshold, defined as 30% inhibition at 1 μg/mL at the time point indicated.)
2 | CC(C)(C)c1cc(NC(=O)Nc2ccc(Oc3ccnc(Nc4ccc5c(c4)C(=O)NC5)n3)c3ccccc23)n(-c2ccc(OCCN3CCOCC3)cc2)n1 [Example 63, 1-(3-(tert-butyl)-1-(4-(2-morpholinoethoxy)phenyl)-1H-pyrazol-5-yl)-3-(4-((2-((3-oxoisoindolin-5-yl)amino)pyrimidin-4-yl)oxy)naphthalen-1-yl)urea] | 10 | 184 | 2.8 | < 1 | 1.5 | 14 | 0.3 | −ve (−ve and +ve indicate that the value is below and above respectively, the no significant effect threshold, defined as 30% inhibition at 1 μg/mL at the time point indicated.) | −ve (−ve and +ve indicate that the value is below and above respectively, the no significant effect threshold, defined as 30% inhibition at 1 μg/mL at the time point indicated.)

Continued, in another order:

Row | IC50 (Syk) [nM] | IC50 (GSK3α) [nM] | IC50 [2] [nM] | IC50 (cSrc) [nM] | EC50 [3] [nM] | IC50 (p38 MAPKα) [nM] | Compound | IC50 [1] [nM] | MTT Assay Cell viability at time point in d-U937 cells 4 h (d-U937 cells) | MTT Assay Cell viability at time point in d-U937 cells 24 h (d-U937 cells)
3 | 63 | 3780 | 8.7 | 107 | 0.7 | 10 | COc1ccc(-n2nc(C(C)(C)C)cc2NC(=O)Nc2ccc(Oc3ccnc(Nc4ccc5[nH]nc(C(=O)N6CCOCC6)c5c4)n3)c3ccccc23)cn1 [Example 83, 1-(3-(tert-butyl)-1-(6-methoxypyridin-3-yl)-1H-pyrazol-5-yl)-3-(4-((2-((3-(morpholine-4-carbonyl)-1H-indazol-5-yl)amino)pyrimidin-4-yl)oxy)naphthalen-1-yl)urea] | 2.9 | −ve (−ve and +ve indicate that the value is below and above respectively, the no significant effect threshold, defined as 30% inhibition at 1 μg/mL at the time point indicated.) | −ve (−ve and +ve indicate that the value is below and above respectively, the no significant effect threshold, defined as 30% inhibition at 1 μg/mL at the time point indicated.)
4 | 1 | 597 | 192 | < 1 | 3.6 | 27 | CC(C)(C)c1cc(NC(=O)Nc2ccc(Oc3ccnc(Nc4ccc5c(cnn5CCN5CCOCC5)c4)n3)c3ccccc23)n(-c2ccc(OCCN3CCOCC3)cc2)n1 [Example 74, 1-(3-(tert-butyl)-1-(4-(2-morpholinoethoxy)phenyl)-1H-pyrazol-5-yl)-3-(4-((2-((1-(2-morpholinoethyl)-1H-indazol-5-yl)amino)pyrimidin-4-yl)oxy)naphthalen-1-yl)urea] | 2.7 | −ve (−ve and +ve indicate that the value is below and above respectively, the no significant effect threshold, defined as 30% inhibition at 1 μg/mL at the time point indicated.) | −ve (−ve and +ve indicate that the value is below and above respectively, the no significant effect threshold, defined as 30% inhibition at 1 μg/mL at the time point indicated.)
5 | 26 | > 1560 | 2.4 | 10 | 1.8 | 63 | COc1ccc(-n2nc(C(C)(C)C)cc2NC(=O)Nc2ccc(Oc3ccnc(Nc4ccc5[nH]ccc5c4)n3)c3ccccc23)cn1 [Example 82, 1-(4-((2-((1H-indol-5-yl)amino)pyrimidin-4-yl)oxy)naphthalen-1-yl)-3-(3-(tert-butyl)-1-(6-methoxypyridin-3-yl)-1H-pyrazol-5-yl)urea] | 2.7 | −ve (−ve and +ve indicate that the value is below and above respectively, the no significant effect threshold, defined as 30% inhibition at 1 μg/mL at the time point indicated.) | −ve (−ve and +ve indicate that the value is below and above respectively, the no significant effect threshold, defined as 30% inhibition at 1 μg/mL at the time point indicated.)

From US9249125B2, “Pyrazole derivatives as p38 MAP inhibitors” (RESPIVERT LIMITED, priority 2012, dated 2016)
